Experimental data taken from patent US4731109A, “Herbicidal 2-haloacetanilides” (Monsanto Company, priority 1982, dated 1988).

Key:
wild proso millet = assay: Greenhouse pre-emergence GR15/GR85 selectivity test; format: in vivo, wild proso millet (panicum milicaeum); conditions: Table XIV
Procedure, shortened: (§1)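 Top soil was compacted in pans, seeds placed on the surface, and the covering soil mixed with a known quantity of active ingredient before being spread over them. After an initial overhead watering, pans were subirrigated and scored 2-3 weeks later.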

corn = assay: as above; format: in vivo
Procedure, shortened: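 Active ingredient mixed into cover soil over seeded pans (pre-emergence soil incorporation), initial overhead irrigation equal to 0.64 cm rainfall, then subirrigation. Scored about 2-3 weeks after seeding; GR15 (crop) and GR85 (weed) rates in kg/ha, selectivity factor = crop GR15 / weed GR85.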

Quackgrass = assay: Herbicidal effect in a variety of soil types; format: in vivo; conditions: for selectivity factor (GR15/GR85): in soybeans
Excerpt: A further guide to the effectiveness of a chemical as a selective herbicide is the "selectivity factor" ("SF") for a herbicide in given crops and weeds. The selectivity factor is a measure of the relative degree of crop safety and weed injury and is expressed in terms of the GR15 /GR85 ratio, i.e., the GR15 rate for the crop divided by the GR85 rate for the weed, both rates in kg/ha (lb/A).
The herbicide treatments were by soil incorporation with seeds planted 0.375 in (0.95 cm) deep, with 0.25 in (0.64 cm overhead irrigation. Observations were made about three weeks after treatment. Selectivity factors are shown in parenthesis.

purple nutsedge = assay: Greenhouse pre-emergence GR15/GR85 selectivity test; format: in vivo
Procedure, shortened: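 Pre-emergence greenhouse test: compound in solvent or as a wettable powder was mixed into cover soil over the seeds or propagules. Pans got an initial overhead irrigation equal to 0.64 cm of rain (sometimes omitted), then subirrigation, and were assessed about 2-3 weeks later. GR15 (crop) and GR85 (weed) rates were in kg/ha; selectivity factor is their ratio.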

rape = assay: as above; format: in vivo; conditions: Table VI
Procedure, shortened: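 Pre-emergence soil-incorporation test: seeded pans were covered with topsoil mixed with active ingredient (in solvent or as wettable powder), overhead-irrigated (0.64 cm) or not, then subirrigated. Plants were scored about 2-3 weeks after treatment. GR15/GR85 rates are in kg/ha, and selectivity factor is crop GR15 divided by weed GR85.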

shattercane = assay: as above; format: in vivo; conditions: Table XIV
Procedure, shortened: as §1

red rice = assay: as above; format: in vivo; conditions: Table XIV
Procedure, shortened: as §1

itchgrass = assay: as above; format: in vivo; conditions: Table XIV
Procedure, shortened: as §1

seedling johnsongrass = assay: as above; format: in vivo; conditions: Table XIV
Procedure, shortened: as §1

alexandergrass = assay: as above; format: in vivo; conditions: Table XIV
Procedure, shortened: as §1

Texas panicum = assay: as above; format: in vivo; conditions: Table XIV
Procedure, shortened: as §1

fall panicum = assay: as above; format: in vivo; conditions: Table XIV
Procedure, shortened: as §1

soybeans = assay: Herbicidal effect in a variety of soil types; format: in vivo
[1] = Drummer silty clay, Table XVII A
[2] = Drummer silty clay, Table XVII B
[3] = Drummer silty clay, Table XVII C
[4] = Wabash silty clay, Table XVII B
[5] = Wabash silty clay, Table XVII C

CCOCN(C(=O)CCl)c1c(C)cccc1C(F)(F)F [Example 1, N-(ethoxymethyl)-2'-trifluoromethyl-6'-methyl-2-chloroacetanilide]
GR85 Rate (wild proso millet): 1.1 Kg/Ha | selectivity factor (GR15/GR85) (wild proso millet; in soybeans): > 1.0 | GR15 (corn; Table IV, Replicate #1): 0.76 Kg/Ha | GR15 (corn; Table IV, Replicate #2): 0.76 Kg/Ha | GR15 (corn; Table V): 2.2 Kg/Ha | GR15 (corn; Table XII): 0.69 Kg/Ha | GR15 (corn; Table XIII): 0.69 Kg/Ha | GR15 (corn; corn/purple nutsedge): 0.67 kg/ha | GR85 (Quackgrass; [1]): 0.11 Kg/Ha | GR85 (Quackgrass; [2]): 0.17 Kg/Ha | GR85 (Quackgrass; [3]): 0.13 Kg/Ha | GR85 (Quackgrass; Florida muck, Table XVII A): 0.52 Kg/Ha | GR85 (Quackgrass; Florida muck, Table XVII B): 0.78 Kg/Ha | GR85 (Quackgrass; Florida muck, Table XVII C): 0.74 Kg/Ha | GR85 (Quackgrass; Florida sand, Table XVII A): 0.2 Kg/Ha | GR85 (Quackgrass; Florida sand, Table XVII B): 0.48 Kg/Ha | GR85 (Quackgrass; Ray silt loam, Table XVII A): 0.22 Kg/Ha | GR85 (Quackgrass; Ray silt loam, Table XVII B): 0.13 Kg/Ha | GR85 (Quackgrass; Ray silt loam, Table XVII C): 0.10 Kg/Ha | GR85 (Quackgrass; Sarpy silty clay, Table XVII A): 0.28 Kg/Ha | GR85 (Quackgrass; Sarpy silty clay, Table XVII B): 0.10 Kg/Ha | GR85 (Quackgrass; Sarpy silty clay, Table XVII C): 0.13 Kg/Ha | GR85 (Quackgrass; Wabash silty clay, Table XVII A): 0.28 Kg/Ha | GR85 (Quackgrass; [4]): 0.13 Kg/Ha | GR85 (Quackgrass; [5]): 0.07 Kg/Ha | selectivity factor (GR15/GR85) (Quackgrass; [1]): 20 | selectivity factor (GR15/GR85) (Quackgrass; [2]): 13 | selectivity factor (GR15/GR85) (Quackgrass; [3]): 14.5 | selectivity factor (GR15/GR85) (Quackgrass; Florida muck, Table XVII A): > 4.5 | selectivity factor (GR15/GR85) (Quackgrass; Florida muck, Table XVII B): > 3 | selectivity factor (GR15/GR85) (Quackgrass; Florida muck, Table XVII C): > 3 | selectivity factor (GR15/GR85) (Quackgrass; Florida sand, Table XVII A): 10 | selectivity factor (GR15/GR85) (Quackgrass; Florida sand, Table XVII B): 4.5 | selectivity factor (GR15/GR85) (Quackgrass; Ray silt loam, Table XVII A): 5 | selectivity factor (GR15/GR85) (Quackgrass; Ray silt loam, Table XVII B): 16.5 | selectivity factor (GR15/GR85) (Quackgrass; Ray silt loam, Table XVII C): 19.5 | selectivity factor (GR15/GR85) (Quackgrass; Sarpy silty clay, Table XVII A): > 8 | selectivity factor (GR15/GR85) (Quackgrass; Sarpy silty clay, Table XVII B): 22 | selectivity factor (GR15/GR85) (Quackgrass; Sarpy silty clay, Table XVII C): > 16.5 | selectivity factor (GR15/GR85) (Quackgrass; [4]): 17 | selectivity factor (GR15/GR85) (Quackgrass; [5]): 31.5 | GR85 (purple nutsedge; in corn): 0.25 kg/ha | S.F. (GR15/GR85) (purple nutsedge; in corn): 2.7 | GR85 (purple nutsedge; in soybeans): 0.25 kg/ha | S.F. (GR15/GR85) (purple nutsedge; in soybeans): 4.5 | GR15 Rate (rape): 0.85 Kg/Ha | GR85 Rate (shattercane): 0.28 Kg/Ha | selectivity factor (GR15/GR85) (shattercane; in soybeans): > 4.0 | GR85 Rate (red rice): 0.2 Kg/Ha | selectivity factor (GR15/GR85) (red rice; in soybeans): > 5.5 | GR85 Rate (itchgrass): 1.1 Kg/Ha | selectivity factor (GR15/GR85) (itchgrass; in soybeans): > 1.0 | GR85 Rate (seedling johnsongrass): 0.14 Kg/Ha | selectivity factor (GR15/GR85) (seedling johnsongrass; in soybeans): > 8.0 | GR85 Rate (alexandergrass): 0.56 Kg/Ha | selectivity factor (GR15/GR85) (alexandergrass; in soybeans): > 2.0 | GR85 Rate (Texas panicum): 1.1 Kg/Ha | selectivity factor (GR15/GR85) (Texas panicum; in soybeans): > 1.0 | GR85 Rate (fall panicum): < 0.07 Kg/Ha | selectivity factor (GR15/GR85) (fall panicum; in soybeans): > 16 | GR15 (soybeans; [1]): > 2.2 Kg/Ha | GR15 (soybeans; [2]): 2.2 Kg/Ha | GR15 (soybeans; [3]): 2.0 Kg/Ha | GR15 (soybeans; Florida muck, Table XVII A): > 2.2 Kg/Ha | GR15 (soybeans; Florida muck, Table XVII B): 2.2 Kg/Ha | GR15 (soybeans; Florida muck, Table XVII C): > 2.2 Kg/Ha | GR15 (soybeans; Florida sand, Table XVII A): 2.0 Kg/Ha | GR15 (soybeans; Florida sand, Table XVII B): 2.2 Kg/Ha | GR15 (soybeans; Ray silt loam, Table XVII A): 1.1 Kg/Ha | GR15 (soybeans; Ray silt loam, Table XVII B): 2.2 Kg/Ha | GR15 (soybeans; Ray silt loam, Table XVII C): 2.0 Kg/Ha | GR15 (soybeans; Sarpy silty clay, Table XVII A): > 2.2 Kg/Ha | GR15 (soybeans; Sarpy silty clay, Table XVII B): 2.2 Kg/Ha | GR15 (soybeans; Sarpy silty clay, Table XVII C): > 2.2 Kg/Ha | GR15 (soybeans; [4]): 2.2 Kg/Ha | GR15 (soybeans; [5]): 2.2 Kg/Ha
